According to the CheMixHub viscosity set:
“And” between values parts separate entries of the source, which are not always exact repeats. Equal entries are not always repeated. ± gives the uncertainty stated by the source.

Assay: xn = mol fraction of the nth substance listed

O=S(=O)([O-])[O-].[O]=[V+2] + O
viscosity, 100 kPa
Settings | 293.15 K | 298.15 K | 303.15 K | 308.15 K | 313.15 K | 318.15 K | 323.15 K
x1 = 0.000898 | 1.035 ± 0.022 mPa·s | 0.9204 ± 0.02 mPa·s | 0.8258 ± 0.018 mPa·s | 0.7466 ± 0.016 mPa·s | 0.6802 ± 0.014 mPa·s | 0.6242 ± 0.013 mPa·s | 0.576 ± 0.012 mPa·s
x1 = 0.00129 | 1.048 ± 0.022 mPa·s | 0.9314 ± 0.02 mPa·s | 0.836 ± 0.018 mPa·s | 0.7558 ± 0.016 mPa·s | 0.688 ± 0.015 mPa·s | 0.6311 ± 0.013 mPa·s | 0.5827 ± 0.012 mPa·s
x1 = 0.00163 | 1.068 ± 0.023 mPa·s | 0.9499 ± 0.02 mPa·s | 0.8519 ± 0.018 mPa·s | 0.7707 ± 0.016 mPa·s | 0.7015 ± 0.015 mPa·s | 0.6439 ± 0.014 mPa·s | 0.5926 ± 0.013 mPa·s
x1 = 0.002247 | 1.089 ± 0.055 mPa·s | 0.9678 ± 0.049 mPa·s | 0.8664 ± 0.044 mPa·s | 0.7814 ± 0.04 mPa·s | – | – | –
x1 = 0.002326 | 1.101 ± 0.023 mPa·s | 0.978 ± 0.021 mPa·s | 0.8762 ± 0.019 mPa·s | 0.7911 ± 0.017 mPa·s | 0.7207 ± 0.015 mPa·s | 0.6594 ± 0.014 mPa·s | 0.6101 ± 0.013 mPa·s
x1 = 0.002883 | 1.132 ± 0.024 mPa·s | 1.005 ± 0.021 mPa·s | 0.8997 ± 0.019 mPa·s | 0.8136 ± 0.017 mPa·s | 0.7379 ± 0.016 mPa·s | 0.6736 ± 0.014 mPa·s | 0.6205 ± 0.013 mPa·s
x1 = 0.003583 | 1.154 ± 0.025 mPa·s | 1.024 ± 0.022 mPa·s | 0.9168 ± 0.019 mPa·s | 0.8267 ± 0.018 mPa·s | 0.7514 ± 0.016 mPa·s | 0.6872 ± 0.015 mPa·s | 0.6348 ± 0.014 mPa·s
x1 = 0.004098 | 1.174 ± 0.025 mPa·s | 1.042 ± 0.022 mPa·s | 0.9321 ± 0.02 mPa·s | 0.8405 ± 0.018 mPa·s | 0.7626 ± 0.016 mPa·s | 0.6972 ± 0.015 mPa·s | 0.6409 ± 0.014 mPa·s
x1 = 0.004417 | 1.19 ± 0.025 mPa·s | – | 0.9437 ± 0.02 mPa·s | 0.8499 ± 0.018 mPa·s | 0.7718 ± 0.016 mPa·s | 0.7049 ± 0.015 mPa·s | 0.6484 ± 0.014 mPa·s
x1 = 0.00448 | 1.189 ± 0.06 mPa·s | – | 0.943 ± 0.048 mPa·s | 0.8499 ± 0.043 mPa·s | – | – | –
x1 = 0.005377 | 1.236 ± 0.026 mPa·s | 1.094 ± 0.023 mPa·s | 0.9762 ± 0.021 mPa·s | 0.8796 ± 0.019 mPa·s | 0.7968 ± 0.017 mPa·s | 0.7274 ± 0.015 mPa·s | 0.6684 ± 0.014 mPa·s
x1 = 0.006709 | 1.297 ± 0.066 mPa·s | 1.148 ± 0.058 mPa·s | 1.024 ± 0.052 mPa·s | – | – | – | –
x1 = 0.00893 | 1.418 ± 0.072 mPa·s | 1.252 ± 0.063 mPa·s | 1.115 ± 0.056 mPa·s | – | – | – | –
x1 = 0.0111 | 1.548 ± 0.078 mPa·s | 1.364 ± 0.069 mPa·s | 1.212 ± 0.061 mPa·s | – | – | – | –
x1 = 0.0133 | 1.696 ± 0.086 mPa·s | 1.491 ± 0.075 mPa·s | 1.322 ± 0.067 mPa·s | – | – | – | –
x1 = 0.0155 | 1.854 ± 0.094 mPa·s | 1.627 ± 0.082 mPa·s | 1.44 ± 0.073 mPa·s | – | – | – | –
x1 = 0.0177 | 2.031 ± 0.1 mPa·s | 1.777 ± 0.09 mPa·s | 1.57 ± 0.079 mPa·s | – | – | – | –
x1 = 0.01986 | 2.226 ± 0.11 mPa·s | 1.943 ± 0.098 mPa·s | 1.711 ± 0.086 mPa·s | – | – | – | –
x1 = 0.02202 | 2.436 ± 0.12 mPa·s | 2.115 ± 0.21 mPa·s and 2.121 ± 0.11 mPa·s | – | – | – | – | –
x1 = 0.02418 | 2.662 ± 0.13 mPa·s | 2.312 ± 0.12 mPa·s | 2.027 ± 0.1 mPa·s | – | – | – | –
x1 = 0.02631 | 2.89 ± 0.15 mPa·s | 2.509 ± 0.13 mPa·s | 2.196 ± 0.11 mPa·s | – | – | – | –
x1 = 0.03893 | – | – | – | – | – | 2.575 ± 0.26 mPa·s | –

C1C[C@@H]2[C@H]3CC[C@H](C3)[C@@H]2C1 + CCCCCCCCCC
viscosity
Settings | 293.15 K | 298.15 K | 303.15 K | 308.15 K | 313.15 K | 318.15 K | 323.15 K
100 kPa, x1 = 0.1005 | 0.989 ± 0.021 mPa·s and 0.992 ± 0.022 mPa·s | 0.921 ± 0.02 mPa·s | 0.855 ± 0.018 mPa·s and 0.858 ± 0.019 mPa·s | 0.8 ± 0.017 mPa·s and 0.803 ± 0.017 mPa·s | 0.75 ± 0.016 mPa·s and 0.754 ± 0.016 mPa·s | 0.706 ± 0.015 mPa·s and 0.709 ± 0.015 mPa·s | 0.666 ± 0.014 mPa·s and 0.669 ± 0.015 mPa·s
100 kPa, x1 = 0.2006 | 1.074 ± 0.023 mPa·s and 1.083 ± 0.024 mPa·s | 0.993 ± 0.021 mPa·s and 1.002 ± 0.022 mPa·s | 0.925 ± 0.02 mPa·s and 0.931 ± 0.02 mPa·s | 0.863 ± 0.018 mPa·s and 0.869 ± 0.019 mPa·s | 0.808 ± 0.017 mPa·s and 0.813 ± 0.018 mPa·s | 0.759 ± 0.016 mPa·s and 0.764 ± 0.017 mPa·s | 0.715 ± 0.015 mPa·s and 0.72 ± 0.016 mPa·s
100 kPa, x1 = 0.3006 | 1.196 ± 0.026 mPa·s | 1.105 ± 0.024 mPa·s | 1.023 ± 0.022 mPa·s | 0.949 ± 0.021 mPa·s | 0.885 ± 0.019 mPa·s | 0.828 ± 0.018 mPa·s | 0.778 ± 0.017 mPa·s
100 kPa, x1 = 0.3043 | 1.18 ± 0.025 mPa·s | 1.09 ± 0.023 mPa·s | 1.013 ± 0.022 mPa·s | 0.943 ± 0.02 mPa·s | 0.88 ± 0.019 mPa·s | 0.825 ± 0.018 mPa·s | 0.777 ± 0.017 mPa·s
100 kPa, x1 = 0.3995 | 1.297 ± 0.028 mPa·s | 1.195 ± 0.026 mPa·s | 1.105 ± 0.024 mPa·s | 1.027 ± 0.022 mPa·s | 0.958 ± 0.021 mPa·s | 0.897 ± 0.019 mPa·s | 0.841 ± 0.018 mPa·s
100 kPa, x1 = 0.4006 | 1.306 ± 0.029 mPa·s | 1.203 ± 0.026 mPa·s | 1.113 ± 0.024 mPa·s | 1.033 ± 0.023 mPa·s | 0.964 ± 0.021 mPa·s | 0.902 ± 0.02 mPa·s | 0.848 ± 0.019 mPa·s
100 kPa, x1 = 0.4977 | 1.442 ± 0.031 mPa·s | 1.327 ± 0.029 mPa·s | 1.226 ± 0.027 mPa·s | 1.137 ± 0.025 mPa·s | 1.057 ± 0.023 mPa·s | 0.988 ± 0.021 mPa·s | 0.925 ± 0.02 mPa·s
100 kPa, x1 = 0.4997 | 1.45 ± 0.032 mPa·s | 1.333 ± 0.029 mPa·s | 1.232 ± 0.027 mPa·s | 1.142 ± 0.025 mPa·s | 1.063 ± 0.023 mPa·s | 0.99 ± 0.022 mPa·s | 0.927 ± 0.02 mPa·s
100 kPa, x1 = 0.5986 | 1.619 ± 0.035 mPa·s | 1.486 ± 0.033 mPa·s | 1.37 ± 0.03 mPa·s | 1.267 ± 0.028 mPa·s | 1.176 ± 0.026 mPa·s | 1.096 ± 0.024 mPa·s | 1.023 ± 0.022 mPa·s
100 kPa, x1 = 0.6007 | 1.629 ± 0.036 mPa·s | 1.495 ± 0.033 mPa·s | 1.378 ± 0.031 mPa·s | 1.275 ± 0.028 mPa·s | 1.184 ± 0.026 mPa·s | 1.103 ± 0.024 mPa·s | 1.031 ± 0.023 mPa·s
100 kPa, x1 = 0.7 | 1.859 ± 0.041 mPa·s | 1.7 ± 0.038 mPa·s | 1.562 ± 0.035 mPa·s | 1.441 ± 0.032 mPa·s | – | 1.238 ± 0.028 mPa·s | 1.155 ± 0.026 mPa·s
100 kPa, x1 = 0.7001 | 1.849 ± 0.041 mPa·s | 1.692 ± 0.037 mPa·s | 1.555 ± 0.034 mPa·s | 1.435 ± 0.032 mPa·s | – | 1.234 ± 0.027 mPa·s | 1.15 ± 0.025 mPa·s
100 kPa, x1 = 0.7963 | 2.117 ± 0.047 mPa·s | 1.938 ± 0.043 mPa·s | 1.776 ± 0.04 mPa·s | 1.634 ± 0.036 mPa·s | 1.51 ± 0.034 mPa·s | 1.398 ± 0.031 mPa·s | 1.299 ± 0.029 mPa·s
100 kPa, x1 = 0.8002 | 2.153 ± 0.048 mPa·s | 1.963 ± 0.044 mPa·s | 1.798 ± 0.04 mPa·s | 1.655 ± 0.037 mPa·s | – | 1.413 ± 0.032 mPa·s | 1.313 ± 0.029 mPa·s
100 kPa, x1 = 0.8994 | 2.512 ± 0.057 mPa·s | 2.284 ± 0.052 mPa·s | 2.086 ± 0.047 mPa·s | 1.914 ± 0.043 mPa·s | 1.763 ± 0.04 mPa·s | 1.629 ± 0.037 mPa·s | 1.511 ± 0.034 mPa·s
100 kPa, x1 = 0.8995 | 2.525 ± 0.057 mPa·s | 2.294 ± 0.051 mPa·s | 2.093 ± 0.047 mPa·s | 1.918 ± 0.043 mPa·s | 1.765 ± 0.04 mPa·s | 1.631 ± 0.037 mPa·s | 1.513 ± 0.034 mPa·s
101 kPa, x2 = 0.4893 | 1.525 ± 0.039 mPa·s | – | – | – | – | – | –
101 kPa, x2 = 0.6905 | 1.245 ± 0.032 mPa·s | – | – | – | – | – | –
